Reference: patent US20240254103A9, “NOVEL PYRIMIDINE DERIVATIVE, AND COMPOSITION FOR PREVENTING OR TREATING NEURODEGENERATIVE DISEASES AND CANCER, COMPRISING SAME” (WHAN IN PHARMACEUTICAL CO., LTD., priority 2020, published 2024)

Biological target: T1, wild-type LRRK2 (Homo sapiens, UniProt Q5S007)
T1 construct: DNA tag for qPCR detection (not a peptide; the protein part that carries it is not described); made in house; host or cells: HEK 293 cells (the same paragraph also describes T7 phage grown in E. coli BL21)
T1 sequence (Q5S007 970-2527): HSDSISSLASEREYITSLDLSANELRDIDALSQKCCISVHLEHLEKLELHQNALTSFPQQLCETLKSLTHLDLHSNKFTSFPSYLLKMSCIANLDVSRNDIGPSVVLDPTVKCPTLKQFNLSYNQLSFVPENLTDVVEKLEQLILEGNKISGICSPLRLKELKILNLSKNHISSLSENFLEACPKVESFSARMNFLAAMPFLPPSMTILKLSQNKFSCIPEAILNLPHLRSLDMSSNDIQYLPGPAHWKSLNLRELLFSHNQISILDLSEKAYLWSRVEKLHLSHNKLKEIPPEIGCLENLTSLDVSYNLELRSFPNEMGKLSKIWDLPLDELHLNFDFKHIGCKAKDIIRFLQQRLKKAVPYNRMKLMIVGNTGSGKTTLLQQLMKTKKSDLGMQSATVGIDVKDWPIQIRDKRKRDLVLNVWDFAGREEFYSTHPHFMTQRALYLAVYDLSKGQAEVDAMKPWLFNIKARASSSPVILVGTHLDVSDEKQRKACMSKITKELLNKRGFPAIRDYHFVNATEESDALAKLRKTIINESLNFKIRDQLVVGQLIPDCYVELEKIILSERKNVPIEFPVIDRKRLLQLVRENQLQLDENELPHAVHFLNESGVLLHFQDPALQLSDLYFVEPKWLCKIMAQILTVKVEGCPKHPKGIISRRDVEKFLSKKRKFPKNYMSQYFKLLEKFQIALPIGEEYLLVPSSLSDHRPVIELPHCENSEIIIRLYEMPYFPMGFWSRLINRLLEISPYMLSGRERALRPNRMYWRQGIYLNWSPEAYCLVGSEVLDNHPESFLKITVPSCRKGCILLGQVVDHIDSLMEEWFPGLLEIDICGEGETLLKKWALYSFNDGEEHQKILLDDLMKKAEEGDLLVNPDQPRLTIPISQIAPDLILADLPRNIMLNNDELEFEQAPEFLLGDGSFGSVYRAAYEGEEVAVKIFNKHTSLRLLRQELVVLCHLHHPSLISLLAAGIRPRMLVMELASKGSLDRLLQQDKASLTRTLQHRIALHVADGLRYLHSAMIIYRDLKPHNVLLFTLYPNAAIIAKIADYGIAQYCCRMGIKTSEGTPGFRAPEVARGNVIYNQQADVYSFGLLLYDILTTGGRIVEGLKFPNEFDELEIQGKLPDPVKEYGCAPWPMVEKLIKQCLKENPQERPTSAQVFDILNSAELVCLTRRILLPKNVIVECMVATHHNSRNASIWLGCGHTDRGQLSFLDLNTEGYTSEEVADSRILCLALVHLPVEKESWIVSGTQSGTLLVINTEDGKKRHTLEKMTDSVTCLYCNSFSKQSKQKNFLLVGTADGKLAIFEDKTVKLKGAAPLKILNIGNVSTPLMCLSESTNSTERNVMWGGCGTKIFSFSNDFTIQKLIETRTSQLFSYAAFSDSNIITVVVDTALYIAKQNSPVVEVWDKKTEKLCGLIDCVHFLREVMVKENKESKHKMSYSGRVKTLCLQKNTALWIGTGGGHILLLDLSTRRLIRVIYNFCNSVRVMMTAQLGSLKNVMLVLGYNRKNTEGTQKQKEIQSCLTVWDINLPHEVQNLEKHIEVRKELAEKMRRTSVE
Test: Inhibitory activity against LRRK2: competition binding to ligand-affinity beads, DNA-tagged kinase quantitated by qPCR
Conditions: % of ctrl; for remaining binding at 0.01 µM: 10 nM compound, read-out: LRRK2(WT) Remaining kinase activity(%) at 10 nM; for remaining binding at 0.05 µM: 50 nM compound, read-out: LRRK2(WT) Remaining kinase activity(%) at 50 nM
Method: Representative compounds synthesized in Example 1 were assayed for inhibitory activity against wild-type LRRK2 and mutant LRRK2 (G2019S), and the results are summarized in Tables 2 and 3. In brief, a T7 phase strain carrying the wild-type kinase consisting of amino acid residues from H970 to E2527 of human-derived LRRK2 (Accession no. NP_940980.3) or a T7 phase strain carrying the G2019S mutation kinase was infected into E. coli strain BL21 which was then grown until log phase. After infection with T7 phases (multiplicity of infection=0.4), the cells were cultured at 32° C. for 90-150 minutes while shaking. Then, E. coli lysates were centrifuged (6,000×g) and the supernatant was filtered through a 0.2-μm filter. The kinases were produced in HEK 293 cells. In this regard, DNA was tagged to obtain DNA-tagged kinases for qPCR detection. For use in analyzing the kinases, affinity resins were prepared by treating streptavidin-coated magnetic beads with biotinylated small molecule ligands at room temperature for 30 minutes. Then, the liganded beads were blocked with an excess of biotin and washed with a blocking buffer (SeaBlock (Pierce), 1% BSA, 0.05% Tween 20, 1 mM DTT) to remove unbound ligands and thus to reduce the binding of non-specific phages. […] After one hour of incubation, the affinity beads were washed with a wash buffer (1×PBS, 0.05% Tween 20), resuspended in an elution buffer (1×PBS, 0.05% Tween 20, 0.5 μM non-biotinylated affinity ligand), and incubated at room temperature for 30 minutes while shaking. Afterwards, concentrations of wild-type LRRK2 and mutant LRRK2 (G2019S) in the eluted samples were quantitated by qPCR. Activity values are expressed as percentages relative to the control (% of ctrl). The compounds used in the activity assay were prepared into 40× stocks in 100% DMSO. The stocks were directly diluted during analysis procedures.
Table 2 includes inhibitory activities of the representative compounds of the present disclosure at 100 nM against wild-type LRRK2 and mutant LRRK2 (G2019S) while Table 3 includes inhibitory activities of the representative compounds at 10 nM and 50 nM against wild-type LRRK2. (+++ less than 10%; ++ less than 30%; + less than 50%; −50% or higher)

Row | Compound | remaining binding at 0.01 µM [%] | remaining binding at 0.05 µM [%]
1 | COc1cc(C(=O)NC2CC2)ccc1Nc1ncc(Cl)c(-c2cnn(C(C)C)c2)n1 [Compound 82, 4-((5-chloro-4-(1-isopropyl-1H-pyrazol-4-yl)pyrimidin-2-yl)amino)-N-cyclopropyl-3-methoxybenzamide] | < 50 | < 30
2 | COc1cc(C(=S)N2CCOCC2)ccc1Nc1ncc(Cl)c(-c2cnn(C(C)C)c2)n1 [Compound 74, (4-((5-chloro-4-(1-isopropyl-1H-pyrazol-4-yl)pyrimidin-2-yl)amino)-3-methoxyphenyl)(morpholino)methanethione] | < 50 | < 10
3 | COc1cc(C(=O)N2CC3CN(C)CC3C2)ccc1Nc1ncc(Cl)c(-c2cnn(C(C)C)c2)n1 (stereo not shown) [Compound 98, (4-((5-chloro-4-(1-isopropyl-1H-pyrazol-4-yl)pyrimidin-2-yl)amino)-3-methoxyphenyl)(5-methylhexahydropyrrolo[3,4-c]pyrrol-2(1H)-yl)methanone] | < 30 | < 10
4 | COCCNC(=O)c1ccc(Nc2ncc(Cl)c(-c3cnn(C(C)C)c3)n2)c(OC)c1 [Compound 140, 4-((5-chloro-4-(1-isopropyl-1H-pyrazol-4-yl)pyrimidin-2-yl)amino)-3-methoxy-N-(2-methoxyethyl)benzamide] | ≥ 50 | < 30
5 | COc1cc(C(=O)N2CCC(N3CCCCC3)CC2)ccc1Nc1ncc(Cl)c(-c2cnn(C(C)C)c2)n1 [Compound 217, [1,4′-bipiperidin]-1′-yl(4-((5-chloro-4-(1-isopropyl-1H-pyrazol-4-yl)pyrimidin-2-yl)amino)-3-methoxyphenyl)methanone] | < 30 | < 10
6 | CCOC(=O)CCNC(=O)c1ccc(Nc2ncc(Cl)c(-c3cnn(C(C)C)c3)n2)c(OC)c1 [Compound 176, ethyl 3-(4-((5-chloro-4-(1-isopropyl-1H-pyrazol-4-yl)pyrimidin-2-yl)amino)-3-methoxybenzamido)propanoate] | ≥ 50 | < 50
7 | COc1cc(C(=O)NC2CCN(C(C)C)CC2)ccc1Nc1ncc(Cl)c(-c2cnn(C(C)C)c2)n1 [Compound 99, 4-((5-chloro-4-(1-isopropyl-1H-pyrazol-4-yl)pyrimidin-2-yl)amino)-N-(1-isopropylpiperidin-4-yl)-3-methoxybenzamide] | < 50 | < 30
8 | COc1cc(C(=O)Nc2ccc3c(c2)CCN3C(C)=O)ccc1Nc1ncc(Cl)c(-c2cnn(C(C)C)c2)n1 [Compound 212, N-(1-acetylindolin-5-yl)-4-((5-chloro-4-(1-isopropyl-1H-pyrazol-4-yl)pyrimidin-2-yl)amino)-3-methoxybenzamide] | ≥ 50 | < 50
9 | COc1cc(C(=O)N2CCN(C)CC2)ccc1Nc1ncc(Cl)c(-c2cnn(C(C)C)c2)n1 [Compound 62, (4-((5-chloro-4-(1-isopropyl-1H-pyrazol-4-yl)pyrimidin-2-yl)amino)-3-methoxyphenyl)(4-methylpiperazin-1-yl)methanone] | < 30 | < 10
10 | COc1cc(C(=O)NC2CC(C)(C)NC(C)(C)C2)ccc1Nc1ncc(Cl)c(-c2cnn(C(C)C)c2)n1 [Compound 166, 4-((5-chloro-4-(1-isopropyl-1H-pyrazol-4-yl)pyrimidin-2-yl)amino)-3-methoxy-N-(2,2,6,6-tetramethylpiperidin-4-yl)benzamide] | ≥ 50 | < 30
11 | COc1cc(C(=O)NCc2ccc(S(N)(=O)=O)cc2)ccc1Nc1ncc(Cl)c(-c2cnn(C(C)C)c2)n1 [Compound 189, 4-((5-chloro-4-(1-isopropyl-1H-pyrazol-4-yl)pyrimidin-2-yl)amino)-3-methoxy-N-(4-sulfamoylbenzyl)benzamide] | ≥ 50 | < 50
12 | CCC(NC(=O)c1ccc(Nc2ncc(Cl)c(-c3cnn(C(C)C)c3)n2)c(OC)c1)c1ccccc1 (stereo not shown) [Compound 182, 4-((5-chloro-4-(1-isopropyl-1H-pyrazol-4-yl)pyrimidin-2-yl)amino)-3-methoxy-N-(1-phenylpropyl)benzamide] | ≥ 50 | < 50
13 | COc1cc(C(=O)NC2Cc3ccccc3C2)ccc1Nc1ncc(Cl)c(-c2cnn(C(C)C)c2)n1 [Compound 129, 4-((5-chloro-4-(1-isopropyl-1H-pyrazol-4-yl)pyrimidin-2-yl)amino)-N-(2,3-dihydro-1H-inden-2-yl)-3-methoxybenzamide] | ≥ 50 | < 50
14 | COc1cc(C(=O)NCc2cccc(O)c2)ccc1Nc1ncc(Cl)c(-c2cnn(C(C)C)c2)n1 [Compound 152, 4-((5-chloro-4-(1-isopropyl-1H-pyrazol-4-yl)pyrimidin-2-yl)amino)-N-(3-hydroxybenzyl)-3-methoxybenzamide] | ≥ 50 | < 30
15 | COc1cc(C(=O)N2C[C@H]3CC[C@@H](C2)O3)ccc1Nc1ncc(Cl)c(-c2cnn(C(C)C)c2)n1 [Compound 89, ((1R,5S)-8-oxa-3-azabicyclo[3.2.1]octan-3-yl)(4-((5-chloro-4-(1-isopropyl-1H-pyrazol-4-yl)pyrimidin-2-yl)amino)-3-methoxyphenyl)methanone] | ≥ 50 | < 30
16 | COc1cc(C(=O)Nc2ccc(Cl)cc2)ccc1Nc1ncc(Cl)c(-c2cnn(C(C)C)c2)n1 [Compound 151, 4-((5-chloro-4-(1-isopropyl-1H-pyrazol-4-yl)pyrimidin-2-yl)amino)-N-(4-chlorophenyl)-3-methoxybenzamide] | ≥ 50 | < 50
17 | COc1cc(C(=O)N2CC3(COC3)C2)ccc1Nc1ncc(Cl)c(-c2cnn(C(C)C)c2)n1 [Compound 90, (4-((5-chloro-4-(1-isopropyl-1H-pyrazol-4-yl)pyrimidin-2-yl)amino)-3-methoxyphenyl)(2-oxa-6-azaspiro[3.3]heptan-6-yl)methanone] | ≥ 50 | < 30
18 | COc1cc(C(=O)N2CC(N3CCOCC3)C2)ccc1Nc1ncc(Cl)c(-c2cnn(C(C)C)c2)n1 [Compound 73, (4-((5-chloro-4-(1-isopropyl-1H-pyrazol-4-yl)pyrimidin-2-yl)amino)-3-methoxyphenyl)(3-morpholinoazetidin-1-yl)methanone] | < 50 | < 30
19 | COc1cc(C(=O)N2CCC(N(C)C)CC2)ccc1Nc1ncc(Cl)c(-c2cnn(C(C)C)c2)n1 [Compound 94, (4-((5-chloro-4-(1-isopropyl-1H-pyrazol-4-yl)pyrimidin-2-yl)amino)-3-methoxyphenyl)(4-(dimethylamino)piperidin-1-yl)methanone] | < 30 | < 10
20 | COc1cc(C(=O)N2CCC(N3CCCC3)CC2)ccc1Nc1ncc(Cl)c(-c2cnn(C(C)C)c2)n1 [Compound 216, (4-((5-chloro-4-(1-isopropyl-1H-pyrazol-4-yl)pyrimidin-2-yl)amino)-3-methoxyphenyl)(4-(pyrrolidin-1-yl)piperidin-1-yl)methanone] | < 50 | < 10
